Data on ten molecules can be found in ChEMBL document CHEMBL1155786, “Synthesis of 3'-deoxy-3'-C-methyl nucleoside derivatives” (Bioorg Med Chem, 2008).

Structures are written as SMILES. Activity calls are given as the source filed them. The calls are words filed in the database; no cut-off is given here.

In this test the test system is Human immunodeficiency virus. In words: Antiviral activity against HIV at 100 uM. In kind it is functional, organism-based.
As to `C[C@H]1C[C@H](n2cnc3c(N)ncnc32)O[C@@H]1CO`, the outcome was inactive.

Turning to `C[C@H]1C[C@H](n2ccc(=O)[nH]c2=O)O[C@@H]1CO`, the outcome was inactive.

Take `Nc1ccn([C@H]2C[C@H](O)[C@@H](CO)O2)c(=O)n1`: the result was inactive.

In the case of `Cc1cn([C@H]2C[C@H](C)[C@@H](CO)O2)c(=O)[nH]c1=O`, the outcome was inactive.

Regarding `C[C@H]1[C@@H](O)[C@H](n2cnc(C(N)=O)n2)O[C@@H]1CO`, the outcome was inactive.

As for `C[C@H]1[C@@H](O)[C@H](n2cnc(C(N)=O)c2N)O[C@@H]1CO`, the result was inactive.

`C[C@H]1[C@@H](O)[C@H](n2cnc(C(N)=O)n2)O[C@@H]1COC(=O)c1ccccc1`: the outcome was inactive.

Consider `C[C@H]1C[C@H](n2cnc3c(=O)[nH]c(N)nc32)O[C@@H]1CO`, for which the result was inactive.

In the case of `C[C@H]1C[C@H](n2cnc(C(N)=O)n2)O[C@@H]1COC(=O)c1ccccc1`, the result was inactive.

For the molecule `C[C@H]1C[C@H](n2cnc(C(N)=O)n2)O[C@@H]1CO`, the outcome was inactive.
